Experiment: in vitro
Details: human, hela cells, % viability

| SMILES | viability at 28.5 h, 10 µM |
| --- | --- |
| CC(CCCC(C)(C)O)Nc1cc(N2CCN(C)CC2)n2nccc2n1 (stereo not shown) [CBK037103] | 98.2% |
| COc1ccc(-c2nc(NC(=O)c3cccc(S(C)(=O)=O)c3)cnc2-c2ccc(F)cc2)cc1 [CBK037110] | 100% |
| OCc1cccc(-c2cc(NCc3ccccc3)n3nccc3n2)c1 [CBK037113] | 95.6% |
| CCSc1ccc(-c2cc(N(C)c3cccc(C)c3)n3nccc3n2)cc1 [CBK037115] | 100% |
| CCCC/C=C/c1nccnc1NCc1ccco1 [CBK037116] | 105% |
| CC(C)[C@@H](CO)Nc1cc(-c2cccc(Br)c2)nc2ccnn12 [CBK037117] | 93.9% |
| COc1ccc(Nc2cc(-c3cccc(NC(C)=O)c3)ncn2)cn1 [CBK037125] | 95.1% |
| OCCN1CCN(c2cc(N3CCN(c4ccccn4)CC3)n3nccc3n2)CC1 [CBK037129] | 100% |
| CN(C)CCNC(=O)c1cccc(-c2cc(N3CCCN(C)CC3)n3nccc3n2)c1 [CBK037143] | 86.2% |
| CC(=O)Nc1cccc(-c2cc(NCc3ccccc3)n3nccc3n2)c1 [CBK037153] | 97.2% |
| CN1CCN(c2cc(NCC(c3cccnc3)N(C)C)nc3ccnn23)CC1 (stereo not shown) [CBK037157] | 106% |
| COc1cc(Nc2cncc(-c3ccccc3CO)n2)cc(OC)c1OC [CBK037160] | 95.4% |
| COc1ccc(Nc2cc(-c3ccccc3OC)ncn2)cn1 [CBK037176] | 88.9% |
| COc1cc(-c2cc(N(C)CCN(C)C)n3nccc3n2)cc(OC)c1OC [CBK037181] | 110% |
| Cc1cc(-c2nccnc2N2CCN(CCN(C)C)CC2)cc(C)c1O [CBK037184] | 105% |
| O=C(Cc1ccccc1Oc1ccccc1)Nc1cnc(-c2ccc(F)cc2)c(-c2ccco2)n1 [CBK037194] | 92.6% |
| c1cncc(-c2cncc(NCC3CCOCC3)n2)c1 [CBK037195] | 92.7% |
| O=C(CSc1ccccc1)Nc1cnc(-c2ccc(F)cc2)c(-c2ccco2)n1 [CBK037196] | 101% |
| Cc1cccc(-c2ncc(NC(=O)CCc3cccc(Cl)c3)nc2-c2cccnc2)c1 [CBK037201] | 97.2% |
| c1cncc(-c2nccnc2NCc2ccco2)c1 [CBK037204] | 102% |
| COc1cc(CNc2cc(-c3ccc(F)c(Cl)c3)nc3ccnn23)cc(OC)c1OC [CBK037209] | 107% |
| CN(CC(=O)Nc1cnc(-c2ccc(F)cc2)c(-c2ccco2)n1)S(=O)(=O)c1ccccc1 [CBK037214] | 100% |
| Clc1cc(NCCc2c[nH]c3ccccc23)n2nccc2n1 [CBK037218] | 40.6% |

| SMILES | viability at 28.5 h, 10 µM |
| --- | --- |
| CN(C)CCN(C)c1cc(-c2ccc(F)c(Cl)c2)nc2ccnn12 [CBK037230] | 90.4% |
| Clc1cccc(-c2cc(NCc3cccs3)n3nccc3n2)c1 [CBK037238] | 105% |
| COc1ccc(C(=O)OC(C)(C)C)c(-c2cncc(N3CCN(CCO)CC3)n2)c1 [CBK037239] | 101% |
| CC(C)[C@@H](CO)Nc1cc(Cl)nc2ccnn12 [CBK037242] | 96.2% |
| COc1ccc(-c2cc(N3CCCN(C)CC3)n3nccc3n2)cc1 [CBK037244] | 106% |
| CN(C)C(CNc1cncc(-c2cccc(Cl)c2)n1)c1cccnc1 (stereo not shown) [CBK037247] | 113% |
| CC(C)[C@@H](CO)Nc1cncc(-c2cccc(Cl)c2)n1 [CBK037261] | 102% |
| COc1cc(-c2nccnc2NCCCO)cc(OC)c1OC [CBK037274] | 105% |
| FC(F)(F)c1cc(-c2cn3ccnc3c(NC3CCOCC3)n2)cc(C(F)(F)F)c1 [CBK037278] | 107% |
| Clc1cccc(-c2cncc(N3CCN(Cc4ccccn4)CC3)n2)c1 [CBK037282] | 99.5% |
| c1cncc(-c2nccnc2NCCCN2CCOCC2)c1 [CBK037286] | 107% |
| FC(F)(F)c1cccc(-c2nccnc2NCCCN2CCOCC2)c1 [CBK037288] | 97.6% |
| CN(C)C(CNc1nccnc1-c1ccccc1F)c1cccnc1 (stereo not shown) [CBK037290] | 101% |
| FC(F)(F)c1cccc(-c2nccnc2NCc2cccs2)c1 [CBK037298] | 105% |
| CC(=O)c1ccc(-c2nccnc2NCCc2ccncc2)s1 [CBK037300] | 99.9% |
| Oc1ccc(-c2nccnc2NCCc2ccncc2)cc1 [CBK037302] | 94.3% |
| COc1cc(-c2nccnc2NCCc2ccccn2)cc(OC)c1OC [CBK037307] | 91.4% |
| c1cn2cc(-c3ccc(N4CCOCC4)cc3)nc(NCC3CCOCC3)c2n1 [CBK037308] | 96.3% |
| OCc1ccccc1-c1cncc(NCC2CCOCC2)n1 [CBK037309] | 113% |
| Cc1cccc(C)c1-c1cn2ccnc2c(NC2CCOCC2)n1 [CBK037311] | 91.6% |
| CCNc1nccnc1-c1ccccc1Cl [CBK037313] | 79.9% |
| COCCNc1nc(-c2cccc3cccnc23)cn2ccnc12 [CBK037314] | 95.3% |
| c1coc(-c2nccnc2NCCc2c[nH]c3ccccc23)c1 [CBK037316] | 95.2% |

| SMILES | viability at 28.5 h, 10 µM |
| --- | --- |
| COc1ncc(-c2nccnc2NCc2cccs2)c(OC)n1 [CBK037318] | 95.9% |
| COc1cc(CNc2nccnc2-c2ccc(F)cc2)cc(OC)c1OC [CBK037328] | 90.3% |
| OC1CCC(Nc2nc(-c3ccccc3)cn3ccnc23)CC1 (stereo not shown) [CBK037329] | 98.5% |
| OCc1ccc(-c2nccnc2NCC2CC2)cc1 [CBK037334] | 86% |
| Clc1ccccc1-c1nccnc1NCCc1c[nH]c2ccccc12 [CBK037337] | 106% |
| c1coc(-c2nccnc2NCc2cccs2)c1 [CBK037340] | 104% |
| Oc1cccc(-c2nccnc2NCc2cccs2)c1 [CBK037343] | 88.8% |
| FC(F)(F)c1cccc(-c2nccnc2NCc2ccc3c(c2)OCO3)c1 [CBK037350] | 94.2% |
| COc1ccc(C(=O)OC(C)(C)C)c(-c2nccnc2N2CCCN(C)CC2)c1 [CBK037360] | 103% |
| CCCC/C=C/c1cncc(N2CCN(c3ccccc3C#N)CC2)n1 [CBK037369] | 93.6% |
| CCNc1nc(-c2ccsc2)cn2ccnc12 [CBK037375] | 87.9% |
| c1ccc(CCNc2nccnc2-c2ccncc2)nc1 [CBK037378] | 89.3% |
| N#Cc1ccccc1N1CCN(c2cncc(-c3ccc(CO)cc3)n2)CC1 [CBK037383] | 86.9% |
| Oc1cccc(-c2nccnc2NCCc2ccccn2)c1 [CBK037388] | 104% |
| CC(C)[C@H](CO)Nc1nccnc1-c1ccco1 [CBK037390] | 99% |
| CN(C)C(=O)COc1cccc(Nc2nc(-c3cccc4ccccc34)cn3ccnc23)c1 [CBK037393] | 82.1% |
| COc1cc(Nc2nc(-c3c(OC)cccc3OC)cn3ccnc23)cc(OC)c1OC [CBK037395] | 95.5% |
| COc1cc(CNc2nccnc2-c2cccc(CO)c2)cc(OC)c1 [CBK037403] | 90.6% |
| CC(=O)c1ccc(-c2nccnc2N[C@@H](CO)C(C)C)s1 [CBK037404] | 100% |
| CC(C)[C@H](CO)Nc1nccnc1-c1ccccc1CO [CBK037408] | 98.2% |
| CN(Cc1ccccc1)c1nccnc1-c1ccccc1F [CBK037410] | 95% |
| CN(Cc1ccccc1)c1nccnc1-c1cccnc1 [CBK037414] | 93.5% |
| Fc1ccc(-c2nccnc2NCc2ccncc2)cc1Cl [CBK037422] | 95.5% |

| SMILES | viability at 28.5 h, 10 µM |
| --- | --- |
| COc1ccc(-c2cc(C(=O)Nc3cnc4ccccc4c3)cnc2-c2cccc(C)c2)cn1 [CBK037425] | 89.8% |
| CCCS(=O)(=O)c1ccc2[nH]c(NC(=O)c3cnc(-c4ccccc4)c(-c4ccncc4)c3)nc2c1 [CBK037426] | 100% |
| Cc1cccc(-c2ncc(C(=O)Nc3nccs3)cc2-c2ccco2)c1 [CBK037427] | 86.3% |
| COc1cccc(NC(=O)c2cnc(-c3ccc(Cl)cc3)c(-c3ccco3)c2)c1OC [CBK037428] | 103% |
| Brc1cn2ccnc2c(NCC2CC2)n1 [CBK037432] | 93.6% |
| COc1ccc(-c2cc(C(=O)NCCc3ccncc3)cnc2-c2ccc(F)cc2)cc1 [CBK037434] | 91.5% |
| O=C(NCC(O)c1ccc2ccccc2c1)c1cnc(-c2ccccc2)c(-c2ccncc2)c1 (stereo not shown) [CBK037438] | 91% |
| CC(C)[C@@H](CO)Nc1nc(-c2ccc3ccccc3c2)cn2ccnc12 [CBK037445] | 85.8% |
| OCc1cccc(-c2nccnc2NCc2ccncc2)c1 [CBK037446] | 105% |
| Brc1cn2ccnc2c(Nc2ccc3[nH]ccc3c2)n1 [CBK037449] | 102% |
| COc1cccc(CNc2nccnc2-c2ccc(S(C)(=O)=O)cc2)c1OC [CBK037452] | 104% |
| Cc1cccc(CNc2nccnc2-c2ccncc2)c1 [CBK037453] | 99.3% |
| Cc1cccc(-c2ncc(C(=O)NCCCN3CCCC3=O)cc2-c2ccco2)c1 [CBK037455] | 96.5% |
| O=C(Nc1ccc(OC(F)(F)F)cc1)c1cnc(-c2ccc(Cl)cc2)c(-c2ccco2)c1 [CBK037456] | 106% |
| O=C(Nc1ccc(CCO)cc1)c1cnc(-c2ccc(Cl)cc2)c(-c2ccco2)c1 [CBK037457] | 97.5% |
| CCC(CO)NC(=O)c1cnc(-c2cccc(C)c2)c(-c2ccc(OC)cc2)c1 (stereo not shown) [CBK037460] | 101% |
| CCC(CO)Nc1nc(-c2ccc(O)cc2)cn2ccnc12 (stereo not shown) [CBK037471] | 106% |
| Clc1ccccc1-c1nccnc1NCc1ccncc1 [CBK037472] | 89.2% |
| CCN(CCO)c1ccc(Nc2nc(Br)cn3ccnc23)cc1 [CBK037475] | 98.9% |
| O=C(Nc1ccc(OC(F)(F)F)cc1)c1cnc(-c2ccc(Cl)cc2)c(-c2ccc(O)cc2)c1 [CBK037485] | 109% |
| COc1ccc(-c2cc(C(=O)Nc3ccc(F)c(Cl)c3)cnc2-c2cccc(C)c2)cc1 [CBK037488] | 93.3% |
| COc1ccc(-c2cc(C(=O)NCCc3ccncc3)cnc2-c2cccc(C)c2)cn1 [CBK037489] | 99.1% |
